# Data: PubChem BioAssay (NCI)
#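 96-well plates; 48 h exposure; 5 concentrations. Endpoints by linear interpolation between flanking doses. Not reached: highest tested concentration assigned. At the GI50, growth is halved. Definition used: TGI = concentration required for complete inhibition of growth.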
# Experiments:
# Experiment in all cases: NCI anticancer screen, dose series, 48 h
# BT-549 breast = system: BT-549 breast
# HCC-2998 colon = system: HCC-2998 colon
# LOX IMVI melanoma = system: LOX IMVI melanoma
# CAKI-1 renal = system: CAKI-1 renal
# OVCAR-5 ovarian = system: OVCAR-5 ovarian
# UACC-257 melanoma = system: UACC-257 melanoma
# SK-MEL-28 melanoma = system: SK-MEL-28 melanoma
# M14 melanoma = system: M14 melanoma
# HT29 colon = system: HT29 colon
# MDA-MB-435 = system: MDA-MB-435
# COLO 205 colon = system: COLO 205 colon
# HCT-15 colon = system: HCT-15 colon
# SK-MEL-2 melanoma = system: SK-MEL-2 melanoma
# RPMI-8226 leukemia = system: RPMI-8226 leukemia
# NCI-H460 lung = system: NCI-H460 lung
# ACHN renal = system: ACHN renal
# PC-3 prostate = system: PC-3 prostate
# SK-MEL-5 melanoma = system: SK-MEL-5 melanoma
# HOP-62 NSCLC = system: HOP-62 NSCLC
# NCI-H226 lung = system: NCI-H226 lung
# NCI/ADR-RES ovarian = system: NCI/ADR-RES ovarian
# SK-OV-3 ovarian = system: SK-OV-3 ovarian
# NCI-H522 lung = system: NCI-H522 lung
# HCT-116 colon = system: HCT-116 colon
# TK-10 renal = system: TK-10 renal
# MCF7 breast = system: MCF7 breast
# CCRF-CEM leukemia = system: CCRF-CEM leukemia
# UACC-62 melanoma = system: UACC-62 melanoma
# HS 578T breast = system: HS 578T breast
# OVCAR-8 ovarian = system: OVCAR-8 ovarian
# SF-295 CNS = system: SF-295 CNS
# IGROV1 ovarian = system: IGROV1 ovarian
# T-47D breast = system: T-47D breast
# OVCAR-4 ovarian = system: OVCAR-4 ovarian
# OVCAR-3 ovarian = system: OVCAR-3 ovarian
# MOLT-4 leukemia = system: MOLT-4 leukemia
# HL-60(TB) leukemia = system: HL-60(TB) leukemia
# HOP-92 NSCLC = system: HOP-92 NSCLC
# SNB-19 CNS = system: SNB-19 CNS
# EKVX NSCLC = system: EKVX NSCLC
# SN12C renal = system: SN12C renal
# SF-539 CNS = system: SF-539 CNS
# 786-0 renal = system: 786-0 renal
# SW-620 colon = system: SW-620 colon
# KM12 colon = system: KM12 colon
# U251 CNS = system: U251 CNS
# MDA-MB-231 breast = system: MDA-MB-231 breast
# DU-145 prostate = system: DU-145 prostate
# A549 NSCLC = system: A549 NSCLC
# MALME-3M melanoma = system: MALME-3M melanoma
# A498 renal = system: A498 renal
# UO-31 renal = system: UO-31 renal
# SNB-75 CNS = system: SNB-75 CNS
# K-562 leukemia = system: K-562 leukemia
# SF-268 CNS = system: SF-268 CNS
compound,measurement,setting,value
OCCNCCNc1c2ccccc2nc2oc3ccccc3c12,GI50,BT-549 breast,13.3 µM
same,TGI,BT-549 breast,28.2 µM
same,GI50,HCC-2998 colon,4.91 µM
same,TGI,HCC-2998 colon,20.9 µM
same,GI50,LOX IMVI melanoma,5.87 µM
same,TGI,LOX IMVI melanoma,20.6 µM
same,GI50,CAKI-1 renal,11.9 µM
same,TGI,CAKI-1 renal,56.4 µM
same,GI50,OVCAR-5 ovarian,24.2 µM
same,TGI,OVCAR-5 ovarian,71.6 µM
same,GI50,UACC-257 melanoma,15.6 µM
same,TGI,UACC-257 melanoma,33.2 µM
same,GI50,SK-MEL-28 melanoma,12.1 µM
same,TGI,SK-MEL-28 melanoma,26.5 µM
same,GI50,M14 melanoma,12 µM
same,TGI,M14 melanoma,24.5 µM
same,GI50,HT29 colon,4 µM
same,TGI,HT29 colon,21.5 µM
same,GI50,MDA-MB-435,11.5 µM
same,TGI,MDA-MB-435,29.3 µM
same,GI50,COLO 205 colon,3.51 µM
same,TGI,COLO 205 colon,16.4 µM
same,GI50,HCT-15 colon,7.57 µM
same,TGI,HCT-15 colon,53.1 µM
same,GI50,SK-MEL-2 melanoma,20.6 µM
same,TGI,SK-MEL-2 melanoma,43.9 µM
same,GI50,RPMI-8226 leukemia,4.76 µM
same,TGI,RPMI-8226 leukemia,21.6 µM
same,GI50,NCI-H460 lung,4.44 µM
same,TGI,NCI-H460 lung,17.5 µM
same,GI50,ACHN renal,5.82 µM
same,TGI,ACHN renal,32.7 µM
same,GI50,PC-3 prostate,9.73 µM
same,TGI,PC-3 prostate,34.7 µM
same,GI50,SK-MEL-5 melanoma,8.97 µM
same,TGI,SK-MEL-5 melanoma,21.1 µM
same,GI50,HOP-62 NSCLC,6.62 µM
same,TGI,HOP-62 NSCLC,20.2 µM
same,GI50,NCI-H226 lung,20.5 µM
same,TGI,NCI-H226 lung,62 µM
same,GI50,NCI/ADR-RES ovarian,14.5 µM
same,TGI,NCI/ADR-RES ovarian,79.1 µM
same,GI50,SK-OV-3 ovarian,13.1 µM
same,TGI,SK-OV-3 ovarian,40.3 µM
same,GI50,NCI-H522 lung,7.73 µM
same,TGI,NCI-H522 lung,23.7 µM
same,GI50,HCT-116 colon,4.61 µM
same,TGI,HCT-116 colon,16.2 µM
same,GI50,TK-10 renal,22.4 µM
same,TGI,TK-10 renal,86.8 µM
same,GI50,MCF7 breast,6.01 µM
same,TGI,MCF7 breast,29.2 µM
same,GI50,CCRF-CEM leukemia,8.97 µM
same,TGI,CCRF-CEM leukemia,41.9 µM
same,GI50,UACC-62 melanoma,14.1 µM
same,TGI,UACC-62 melanoma,31.5 µM
same,GI50,HS 578T breast,6.8 µM
same,TGI,HS 578T breast,24.1 µM
same,GI50,OVCAR-8 ovarian,9.46 µM
same,TGI,OVCAR-8 ovarian,> 100 µM
same,GI50,SF-295 CNS,6.02 µM
same,TGI,SF-295 CNS,29.6 µM
same,GI50,IGROV1 ovarian,7.3 µM
same,TGI,IGROV1 ovarian,38.3 µM
same,GI50,T-47D breast,11.7 µM
same,TGI,T-47D breast,38.4 µM
same,GI50,OVCAR-4 ovarian,10.2 µM
same,TGI,OVCAR-4 ovarian,34.6 µM
same,GI50,OVCAR-3 ovarian,12.5 µM
same,TGI,OVCAR-3 ovarian,42.8 µM
same,GI50,MOLT-4 leukemia,4.78 µM
same,TGI,MOLT-4 leukemia,> 100 µM
same,GI50,HL-60(TB) leukemia,12.4 µM
same,TGI,HL-60(TB) leukemia,50.5 µM
same,GI50,HOP-92 NSCLC,6.15 µM
same,TGI,HOP-92 NSCLC,25.7 µM
same,GI50,SNB-19 CNS,11.6 µM
same,TGI,SNB-19 CNS,36.2 µM
same,GI50,EKVX NSCLC,13 µM
same,TGI,EKVX NSCLC,46.1 µM
same,GI50,SN12C renal,8.86 µM
same,TGI,SN12C renal,57.7 µM
same,GI50,SF-539 CNS,8.04 µM
same,TGI,SF-539 CNS,21 µM
same,GI50,786-0 renal,7.44 µM
same,TGI,786-0 renal,22.2 µM
same,GI50,SW-620 colon,5.23 µM
same,TGI,SW-620 colon,24.4 µM
same,GI50,KM12 colon,8.31 µM
same,TGI,KM12 colon,> 100 µM
same,GI50,U251 CNS,12.5 µM
same,TGI,U251 CNS,30.2 µM
same,GI50,MDA-MB-231 breast,10.3 µM
same,TGI,MDA-MB-231 breast,37.5 µM
same,GI50,DU-145 prostate,10.1 µM
same,TGI,DU-145 prostate,23.5 µM
same,GI50,A549 NSCLC,10.3 µM
same,TGI,A549 NSCLC,35.7 µM
same,GI50,MALME-3M melanoma,11.4 µM
same,TGI,MALME-3M melanoma,41.8 µM
same,GI50,A498 renal,8.27 µM
same,TGI,A498 renal,21.9 µM
same,GI50,UO-31 renal,7.28 µM
same,TGI,UO-31 renal,34.4 µM
same,GI50,SNB-75 CNS,13.2 µM
same,TGI,SNB-75 CNS,27.1 µM
same,GI50,K-562 leukemia,33.9 µM
same,TGI,K-562 leukemia,> 100 µM
same,GI50,SF-268 CNS,7.33 µM
same,TGI,SF-268 CNS,28.3 µM
